Measured values published in ChEMBL document CHEMBL3045159, “Computational evaluation and experimental in vitro antibacterial, antifungal and antiviral activity of bis-Schiff bases of isatin and its derivatives” (Med Chem Res, 2013).
Values after ≈ are worked out from the molar mass of the structure shown.

What was measured:
Saccharomyces cerevisiae = assay: Antifungal activity against Saccharomyces cerevisiae ATCC 28383; type: functional
Staphylococcus aureus = assay: Antibacterial activity against Staphylococcus aureus CIP 4.83; type: functional
[1] = tested on: Respiratory syncytial virus; assay: Antiviral activity against Respiratory syncytial virus infected HeLa cells; type: functional; settings: human respiratory syncytial virus
Coxsackievirus B4 [2] = assay: Antiviral activity against Human coxsackievirus B4 infected HeLa cells; type: functional; settings: Enterovirus B
[3] = tested on: Vesicular stomatitis virus; assay: Antiviral activity against Vesicular stomatitis virus infected HeLa; type: functional
Coxsackievirus B4 [4] = assay: Antiviral activity against Human coxsackievirus B4 infected Vero cells; type: functional; settings: Enterovirus B
Punta Toro virus = assay: Antiviral activity against Punta Toro virus infected Vero cells; type: functional
Sindbis virus = assay: Antiviral activity against Sindbis virus infected Vero cells; type: functional
Escherichia coli = assay: Antibacterial activity against Escherichia coli CIP 54127; type: functional
Candida albicans = assay: Antifungal activity against Candida albicans CIP 1180-79; type: functional
[5] = tested on: Mammalian orthoreovirus 1; assay: Antiviral activity against Mammalian orthoreovirus 1 infected Vero cells; type: functional
Human respirovirus 3 = assay: Antiviral activity against Human parainfluenza virus 3 infected Vero cells; type: functional
Human alphaherpesvirus 1 [6] = assay: Antiviral activity against thymidine kinase-deficient, acylcovir-resistant Human herpesvirus 1 strain KOS infected in HEL cells; type: functional; settings: Human alphaherpesvirus 1, KOS
[7] = tested on: Vesicular stomatitis virus; assay: Antiviral activity against Vesicular stomatitis virus infected HEL cells; type: functional
Vaccinia virus = assay: Antiviral activity against Vaccinia virus infected HEL cells; type: functional; settings: Orthopoxvirus vaccinia
Human alphaherpesvirus 2 = assay: Antiviral activity against Human herpesvirus 2 strain G infected HEL cells; type: functional; settings: Human alphaherpesvirus 2, strain G
Human alphaherpesvirus 1 [8] = assay: Antiviral activity against Human herpesvirus 1 strain KOS infected in HEL cells; type: functional; settings: Human alphaherpesvirus 1, KOS
[9] = Cytotoxicity against Homo sapiens (human) HeLa cells; type: cell-based
[10] = Cytotoxicity against Homo sapiens (human) HEL cells; type: cell-based
[11] = Cytotoxicity against Chlorocebus aethiops (African green monkey) Vero cells; type: cell-based; settings: chlorocebus sabaeus

`O=C1/C(=N/c2cccc(Cc3cccc(/N=C4/C(=O)N(Cc5ccccc5)c5ccccc54)c3)c2)c2ccccc2N1Cc1ccccc1` showed an MIC (Saccharomyces cerevisiae) of under 50 µg/mL, an MIC (Staphylococcus aureus) of under 50 µg/mL and an MIC [1] of over 40 µg/mL. For the same compound, the MIC (Coxsackievirus B4 [2]) was over 40 µg/mL, the MIC [3] was over 40 µg/mL and the MIC (Coxsackievirus B4 [4]) was over 40 µg/mL. The MIC (Punta Toro virus) was over 40 µg/mL, the MIC (Sindbis virus) was over 40 µg/mL and the MIC (Escherichia coli) was under 50 µg/mL. It also gave an MIC (Candida albicans) of under 50 µg/mL, an MIC [5] of over 40 µg/mL and an MIC (Human respirovirus 3) of over 40 µg/mL. The MIC (Human alphaherpesvirus 1 [6]) was over 40 µg/mL, the MIC [7] was over 40 µg/mL and the MIC (Vaccinia virus) was over 40 µg/mL. It also gave an MIC (Human alphaherpesvirus 2) of over 40 µg/mL, an MIC (Human alphaherpesvirus 1 [8]) of over 40 µg/mL and an MCC [9] of 200 µg/mL. It also gave an MCC [10] of 200 µg/mL and an MCC [11] of 200 µg/mL.

`O=C1Nc2ccc(F)cc2/C1=N\c1cccc(Cc2cccc(/N=C3/C(=O)Nc4ccc(F)cc43)c2)c1` showed an MIC (Saccharomyces cerevisiae) of under 50 µg/mL, an MIC (Staphylococcus aureus) of under 50 µg/mL and an MIC [1] of over 16 µg/mL. For the same compound, the MIC (Coxsackievirus B4 [2]) was over 16 µg/mL, the MIC [3] was 9.6 µg/mL (≈ 19.5 µM) and the MIC (Coxsackievirus B4 [4]) was over 16 µg/mL. The MIC (Punta Toro virus) was over 16 µg/mL, the MIC (Sindbis virus) was over 16 µg/mL and the MIC (Escherichia coli) was under 50 µg/mL. The MIC (Candida albicans) was under 50 µg/mL, the MIC [5] was over 16 µg/mL and the MIC (Human respirovirus 3) was over 16 µg/mL. It also gave an MIC (Human alphaherpesvirus 1 [6]) of over 16 µg/mL, an MIC [7] of over 16 µg/mL and an MIC (Vaccinia virus) of over 16 µg/mL. For the same compound, the MIC (Human alphaherpesvirus 2) was over 16 µg/mL, the MIC (Human alphaherpesvirus 1 [8]) was over 16 µg/mL and the MCC [9] was 80 µg/mL. The MCC [10] was 80 µg/mL and the MCC [11] was 80 µg/mL.

Work on `Cc1c(/N=C2/C(=O)Nc3ccccc32)cccc1/N=C1/C(=O)Nc2ccccc21` yielded an MIC (Saccharomyces cerevisiae) of under 100 µg/mL, an MIC (Staphylococcus aureus) of under 100 µg/mL and an MIC [1] of over 400 µg/mL. It also gave an MIC (Coxsackievirus B4 [2]) of over 400 µg/mL, an MIC [3] of over 400 µg/mL and an MIC (Coxsackievirus B4 [4]) of over 80 µg/mL. For the same compound, the MIC (Punta Toro virus) was over 80 µg/mL, the MIC (Sindbis virus) was over 80 µg/mL and the MIC (Escherichia coli) was under 100 µg/mL. The MIC (Candida albicans) was under 100 µg/mL, the MIC [5] was over 80 µg/mL and the MIC (Human respirovirus 3) was over 80 µg/mL. The MIC (Human alphaherpesvirus 1 [6]) was 16 µg/mL (≈ 42.1 µM), the MIC [7] was over 80 µg/mL and the MIC (Vaccinia virus) was over 80 µg/mL. The MIC (Human alphaherpesvirus 2) was over 80 µg/mL, the MIC (Human alphaherpesvirus 1 [8]) was over 80 µg/mL and the MCC [9] was at least 400 µg/mL. It also gave an MCC [10] of 400 µg/mL and an MCC [11] of 400 µg/mL.

`O=C1/C(=N\c2ccc(Cc3ccc(/N=C4\C(=O)N(Cc5ccccc5)c5ccccc54)cc3)cc2)c2ccccc2N1Cc1ccccc1` gave an MIC (Saccharomyces cerevisiae) of under 50 µg/mL, an MIC (Staphylococcus aureus) of under 50 µg/mL and an MIC [1] of over 40 µg/mL. It also gave an MIC (Coxsackievirus B4 [2]) of over 40 µg/mL, an MIC [3] of over 40 µg/mL and an MIC (Coxsackievirus B4 [4]) of over 8 µg/mL. For the same compound, the MIC (Punta Toro virus) was over 8 µg/mL, the MIC (Sindbis virus) was over 8 µg/mL and the MIC (Escherichia coli) was under 50 µg/mL. The MIC (Candida albicans) was under 50 µg/mL, the MIC [5] was over 8 µg/mL and the MIC (Human respirovirus 3) was over 8 µg/mL. The MIC (Human alphaherpesvirus 1 [6]) was over 8 µg/mL, the MIC [7] was over 8 µg/mL and the MIC (Vaccinia virus) was over 8 µg/mL. The MIC (Human alphaherpesvirus 2) was over 8 µg/mL, the MIC (Human alphaherpesvirus 1 [8]) was over 8 µg/mL and the MCC [9] was 200 µg/mL. The MCC [10] was 40 µg/mL and the MCC [11] was 40 µg/mL.

With `Nc1nc2c(ncn2COC(CO)CO)c(=O)[nH]1` [GANCICLOVIR] the MIC (Human alphaherpesvirus 1 [6]) was 12 µg/mL (≈ 47 µM), the MIC [7] was over 100 µg/mL and the MIC (Vaccinia virus) was over 100 µg/mL. The MIC (Human alphaherpesvirus 2) was 4 µg/mL (≈ 15.7 µM), the MIC (Human alphaherpesvirus 1 [8]) was 0.48 µg/mL (≈ 1.88 µM) and the MCC [10] was over 100 µg/mL.

For `O=c1[nH]c(=O)n([C@H]2C[C@H](O)[C@@H](CO)O2)cc1/C=C/Br` [BRIVUDINE], the MIC [1] was over 500 µg/mL, the MIC (Coxsackievirus B4 [2]) was over 500 µg/mL and the MIC [3] was over 500 µg/mL. It also gave an MIC (Coxsackievirus B4 [4]) of over 100 µg/mL, an MIC (Punta Toro virus) of over 100 µg/mL and an MIC (Sindbis virus) of over 100 µg/mL. For the same compound, the MIC [5] was over 100 µg/mL, the MIC (Human respirovirus 3) was over 100 µg/mL and the MIC (Human alphaherpesvirus 1 [6]) was 500 µg/mL (≈ 1500 µM). The MIC [7] was over 500 µg/mL, the MIC (Vaccinia virus) was 60 µg/mL (≈ 180 µM) and the MIC (Human alphaherpesvirus 2) was over 500 µg/mL. The MIC (Human alphaherpesvirus 1 [8]) was 0.16 µg/mL (≈ 0.48 µM), the MCC [9] was 500 µg/mL and the MCC [10] was over 500 µg/mL. For the same compound, the MCC [11] was 500 µg/mL.

With `NC(=O)c1ncn([C@@H]2O[C@H](CO)[C@@H](O)[C@H]2O)n1` [RIBAVIRIN] the MIC [1] was 60 µg/mL (≈ 246 µM), the MIC (Coxsackievirus B4 [2]) was over 500 µg/mL and the MIC [3] was 60 µg/mL (≈ 246 µM). The MIC (Coxsackievirus B4 [4]) was over 500 µg/mL, the MIC (Punta Toro virus) was 60 µg/mL (≈ 246 µM) and the MIC (Sindbis virus) was 300 µg/mL (≈ 1230 µM). The MIC [5] was 300 µg/mL (≈ 1230 µM), the MIC (Human respirovirus 3) was 300 µg/mL (≈ 1230 µM) and the MIC (Human alphaherpesvirus 1 [6]) was over 500 µg/mL. The MIC [7] was over 500 µg/mL, the MIC (Vaccinia virus) was 300 µg/mL (≈ 1230 µM) and the MIC (Human alphaherpesvirus 2) was over 500 µg/mL. The MIC (Human alphaherpesvirus 1 [8]) was 500 µg/mL (≈ 2050 µM), the MCC [9] was over 500 µg/mL and the MCC [10] was over 500 µg/mL. The MCC [11] was over 500 µg/mL.

`O=C1Nc2ccccc2/C1=N\c1ccc(Oc2cccc(/N=C3/C(=O)Nc4ccccc43)c2)cc1` gave an MIC (Saccharomyces cerevisiae) of under 50 µg/mL, an MIC (Staphylococcus aureus) of under 50 µg/mL and an MIC [1] of over 16 µg/mL. It also gave an MIC (Coxsackievirus B4 [2]) of over 16 µg/mL, an MIC [3] of over 16 µg/mL and an MIC (Coxsackievirus B4 [4]) of over 80 µg/mL. It also gave an MIC (Punta Toro virus) of over 80 µg/mL, an MIC (Sindbis virus) of over 80 µg/mL and an MIC (Escherichia coli) of under 50 µg/mL. It also gave an MIC (Candida albicans) of under 50 µg/mL, an MIC [5] of over 80 µg/mL and an MIC (Human respirovirus 3) of over 80 µg/mL. It also gave an MIC (Human alphaherpesvirus 1 [6]) of over 80 µg/mL, an MIC [7] of over 80 µg/mL and an MIC (Vaccinia virus) of over 80 µg/mL. The MIC (Human alphaherpesvirus 2) was over 80 µg/mL, the MIC (Human alphaherpesvirus 1 [8]) was over 80 µg/mL and the MCC [9] was at least 16 µg/mL. It also gave an MCC [10] of 400 µg/mL and an MCC [11] of 400 µg/mL.
